Measured values from patent US10987366B2, “Methods and compositions for protection of cells and tissues from computed tomography radiation” (The University of Chicago, priority 2010, dated 2021).

Legend:
RKO36 cells [1] = assay: Micronuclei formation in irradiated RKO36 cells; type: cell-based, human
Protocol: Under the treatment conditions in which cells were exposed to WR1065 either 30 min before or 3 h following irradiation the protective effect is the result of a direct interaction between the thiol taken up by the cells and the damage induced by radiation. This direct protective effect disappeared when the drug was added 6 h following irradiation. However, when cells were exposed to the thiol 24 h prior to irradiation to allow for the induction of elevated MnSOD enzyme levels, a protective effect was again observed ([…]). In contrast to the data described in FIG. 4A, the protection described in FIG. 4B was mediated not directly by thiol action (Grdina et al., 1995) but as a result of a thiol-induced adaptive response mediated through the activation of NFκB resulting in the elevation of MnSOD activity (Murley et al., 2002; Murley et al., 2004; Murley et al., 2006; Murley et al., 2007; Murley et al., 2008). For comparison, a radiation-induced adaptive response was investigated by first exposing RKO36 cells to 10 cGy and then challenging with a 2 Gy dose 0, 4, 8, 12, 16, 20, and 24 h later (see FIG. 5).

RKO36 cells [2] = assay: GFP direct repeat assay of delayed hyperrecombination (GFP+/- colonies); type: cell-based, human
Source text: Gene conversion can produce a local loss of heterozygosity (LOH) as well as deletions and inversions at linked repeats and translocations (Nickoloff, 2002). The inventor has utilized a green fluorescence protein (GFP)-based assay using human RKO-derived cells to study the role of delayed hyper-recombination in radiation-induced genomic instability (Huang et al., 2004). A GFP direct repeat homologous recombination substrate is incorporated in RKO cells.
Genomic instability can be measured by analysis of delayed hyperrecombination and mutation/deletion at the GFP direct repeat substrate. GFP-RKO cells can be GFP− or GFP+. When these cells are plated, colonies arising from single cells are either homogenously colorless (GFP−) or green (GFP+). […] Mixed colonies arise by delayed hyperrecombination and can easily be scored using the criteria of having at least >4 cells per colony having an altered fluorescent phenotype. The frequency of induced instability can be calculated as the number of GFP+/− colonies per total surviving colonies scored.
Genomic instability was evaluated in RKO36 cells by analysis of delayed hyperrecombination and mutation/deletion at the GFP direct repeat substrate. […] The frequency of induced instability is calculated as the number of GFP+/− colonies per total surviving colonies scored (Huang et al., 2004). […]

Structure (SMILES): NCCCNCCS [WR1065, 2-[(aminopropyl)amino]ethanethiol]
- micronuclei formation, thiol-induced adaptive response (RKO36 cells [1]; 2 Gy challenge 24 h following WR1065 exposure): reduction of micronuclei formation to unirradiated background levels
- frequency of micronuclei formation (RKO36 cells [1]; 2 Gy, WR1065 30 min following irradiation (FIG. 4B)): significantly reduced
- frequency of micronuclei formation (RKO36 cells [1]; 2 Gy, WR1065 30 min prior to irradiation (FIG. 4A)): significantly reduced
- frequency of micronuclei formation (RKO36 cells [1]; 2 Gy, WR1065 1 h following irradiation (FIG. 4B)): significantly reduced
- frequency of micronuclei formation (RKO36 cells [1]; 2 Gy, WR1065 2 h following irradiation (FIG. 4B)): significantly reduced
- frequency of micronuclei formation (RKO36 cells [1]; 2 Gy, WR1065 3 h following irradiation (FIG. 4B)): significantly reduced
- frequency of micronuclei formation (RKO36 cells [1]; 2 Gy, WR1065 24 h prior to irradiation (FIG. 4A)): significantly reduced
- direct protective effect against micronuclei formation (RKO36 cells [1]; 2 Gy, drug added 6 h following irradiation): disappeared
- frequency of GFP+/- colonies (RKO36 cells [2]; 4 mM WR1065 for 30 min, no irradiation, P=0.02 vs non-WR1065 irradiated cells (2.7%)): 1.1%
- frequency of GFP+/- colonies (RKO36 cells [2]; 10 cGy given 24 h following 4 mM WR1065 for 30 min, P=0.05 vs non-WR1065 irradiated cells (2.7%)): 1.6%
